Reference: US20060252807A1, “Novel ortho-terphenyl inhibitors of p38 kinase and methods of treating inflammatory disorders” (Kalypsys, Inc., priority 2005, published 2006)
pIC50: −log10 of the molar value.

Target: T1, active p38 alpha enzyme (Upstate Biotechnology) (Homo sapiens, UniProt Q16539)
T1 construct: purchased Upstate Biotechnology
Test: p38α biochemical assay (ATP turnover, luminescent detection, Cambrex PKlight)
Details: p38α biochemical assay, Table 1 Biological Activity
Summary of the method: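 Luminescent ATP-depletion readout measures total ATP turnover by p38α phosphorylating whole MapkapK2 protein. ATP 1.4 uM final; 30C, 2 h. Compounds delivered from DMSO.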

T1 sequence (Q16539 whole entry): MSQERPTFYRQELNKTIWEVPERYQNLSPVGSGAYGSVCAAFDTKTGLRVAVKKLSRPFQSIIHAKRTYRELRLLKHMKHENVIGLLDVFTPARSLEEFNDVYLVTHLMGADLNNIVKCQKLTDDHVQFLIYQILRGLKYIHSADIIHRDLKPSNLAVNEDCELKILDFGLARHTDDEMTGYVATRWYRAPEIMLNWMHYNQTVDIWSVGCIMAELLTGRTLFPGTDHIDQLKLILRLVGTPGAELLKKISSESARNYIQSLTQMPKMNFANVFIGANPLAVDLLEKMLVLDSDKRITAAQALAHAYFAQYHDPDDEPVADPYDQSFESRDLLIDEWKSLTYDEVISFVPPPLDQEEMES

`CC(C)NC(=O)n1ccc(-c2c(-c3ccc(F)cc3)noc2CN(C)C)n1` [Example 25, 3-|5-Dimethylaminomethyl-3-(4-fluoro-phenyl)-isoxazol-4-yl|-pyrazole-1-carboxylic acid isopropylamide] and `COCCNCc1onc(-c2ccc(F)cc2)c1-c1nc(C(=O)NC(C)C)cs1` [Example 33, 2-{3-(4-Fluoro-phenyl)-5-|(2-methoxy-ethylamino)-methyl|-isoxazol-4-yl}-thiazole-4-carboxylic acid isopropylamide] cannot be ordered by pIC50: ≥ 6.00 for the first, < 6.00 for the second.

`Cc1nc(Br)sc1C(=O)NCc1nc(-c2ccc(F)cc2)c(-c2nc(C(=O)NC(C)C)cs2)o1` [Example 302] and `CC(C)NC(=O)c1csc(-c2oc(CNC(=O)c3cc(Cl)ccc3O)nc2-c2ccc(F)cc2)n1` [Example 196] cannot be ordered by pIC50: ≥ 6.00 for the first, < 6.00 for the second.

`CC(C)NC(=O)c1csc(-c2oc(CNC(=O)c3ccc(N(C)C=O)cc3)nc2-c2ccc(F)cc2)n1` [Example 210] and `CCCCOc1ccc(C(=O)NCc2nc(-c3ccc(F)cc3)c(-c3nc(C(=O)NC(C)C)cs3)o2)cc1` [Example 263] cannot be ordered by pIC50: < 6.00 for the first, < 6.00 for the second.

`CC(C)NC(=O)c1csc(-c2oc(CNC(=O)c3c(Cl)cc(Cl)cc3Cl)nc2-c2ccc(F)cc2)n1` [Example 306] and `Cc1c(C(=O)NCc2nc(-c3ccc(F)cc3)c(-c3nc(C(=O)NC(C)C)cs3)o2)oc2ccccc12` [Example 202] cannot be ordered by pIC50: ≥ 6.00 for the first, < 6.00 for the second.

`CC(C)NC(=O)c1csc(-c2c(-c3ccc(F)cc3)noc2CNC(=O)C(Cl)(Cl)Cl)n1` [Example 640] and `CC(C)NC(=O)c1csc(-c2c(-c3ccc(F)cc3)noc2CNC(=O)c2ccc(F)cc2Cl)n1` [Example 674] cannot be ordered by pIC50: < 6.00 for the first, < 6.00 for the second.

`COc1ccc(C(=O)NCc2onc(-c3ccc(F)cc3)c2-c2nc(C(=O)NC(C)C)cs2)cc1O` [Example 664] and `CC(C)NC(=O)c1csc(-c2c(-c3ccc(F)cc3)noc2CNC(=O)c2ccc(OC(C)C)cc2)n1` [Example 694] cannot be ordered by pIC50: < 6.00 for the first, < 6.00 for the second.

`CC(C)NC(=O)c1csc(-c2oc(CN3CCN(C(=O)c4ncc[nH]4)CC3)nc2-c2ccc(F)cc2)n1` [Example 343] and `Cc1ccc(C(=O)N2CCN(Cc3nc(-c4ccc(F)cc4)c(-c4nc(C(=O)NC(C)C)cs4)o3)CC2)cc1F` [Example 386] cannot be ordered by pIC50: ≥ 6.00 for the first, < 6.00 for the second.

`CC(C)Cc1ccc(C(C)C(=O)NCc2nc(-c3ccc(F)cc3)c(-c3nc(C(=O)NC(C)C)cs3)o2)cc1` (centres unmarked) [Example 280] and `CC(C)Cc1ccc(C(C)C(=O)N2CCN(Cc3nc(-c4ccc(F)cc4)c(-c4nc(C(=O)NC(C)C)cs4)o3)CC2)cc1` (centres unmarked) [Example 517] cannot be ordered by pIC50: < 6.00 for the first, ≥ 6.00 for the second.

`COCCNC(=O)c1csc(-c2sc(C)nc2-c2ccc(F)cc2)n1` [Example 53, 4′-(4-Fluoro-phenyl)-2′-methyl-|2,5′|bithiazolyl-4-carboxylic acid (2-methoxy-ethyl)-amide] and `CC(C)NC(=O)c1csc(-c2c(-c3ccc(F)cc3)noc2CNC(=O)c2cc(F)cc(F)c2)n1` [Example 635] cannot be ordered by pIC50: ≥ 6.00 for the first, < 6.00 for the second.

`CC(C)NC(=O)c1csc(-c2oc(CN3CCN(C(=O)c4cc(O)c(O)c(O)c4)CC3)nc2-c2ccc(F)cc2)n1` [Example 427] and `CC(C)NC(=O)c1csc(-c2oc(CN3CCN(C(=O)c4cc5cc(Cl)ccc5o4)CC3)nc2-c2ccc(F)cc2)n1` [Example 501] cannot be ordered by pIC50: ≥ 6.00 for the first, < 6.00 for the second.

Same assay, conditions: p38α kinase; Table 1 Biological Activity

`COc1ccc(CNC(=O)c2csc(-c3sc(C)nc3-c3ccc(F)cc3)n2)cc1OC` [Example 1814] and `COc1cccc(NC(=O)c2csc(-c3sc(C)nc3-c3ccc(F)cc3)n2)c1` [Example 1972] cannot be ordered by pIC50: ≥ 6.00 for the first, < 6.00 for the second.

`CC(C)NC(=O)c1csc(-c2oc(CN3CCN(c4ccc([N+](=O)[O-])cc4)CC3)nc2-c2ccc(F)cc2)n1` [Example 1282] and `CC(C)NC(=O)c1csc(-c2oc(CNN3CCN(C)CC3)nc2-c2ccc(F)cc2)n1` [Example 1094] cannot be ordered by pIC50: < 6.00 for the first, < 6.00 for the second.

`CCN(Cc1onc(-c2ccc(F)cc2)c1-c1nc(C(=O)NC(C)C)cs1)C1CCCCC1` [Example 1543] and `C#CCNCc1onc(-c2ccc(F)cc2)c1-c1nc(C(=O)NC(C)C)cs1` [Example 1384] cannot be ordered by pIC50: < 6.00 for the first, < 6.00 for the second.

`Cc1nc(-c2ccc(F)cc2)c(-c2nc(C(=O)Nc3c(C)cccc3C(C)(C)C)cs2)s1` [Example 2008] and `C#CCNC(=O)c1csc(-c2sc(C)nc2-c2ccc(F)cc2)n1` [Example 1707] cannot be ordered by pIC50: ≥ 6.00 for the first, ≥ 6.00 for the second.

`CC(C)NC(=O)c1csc(-c2c(-c3ccc(F)cc3)n[nH]c2C2CCN(C(=O)c3ccc4ccccc4c3O)CC2)n1` [Example 959] and `CC(C)NC(=O)c1csc(-c2c(-c3ccc(F)cc3)n[nH]c2C2CCN(C(=O)c3cccc(F)c3F)CC2)n1` [Example 872] cannot be ordered by pIC50: < 6.00 for the first, < 6.00 for the second.

`CC(C)NC(=O)c1csc(-c2oc(CNCCN)nc2-c2ccc(F)cc2)n1` [Example 1056] and `CC(C)NC(=O)c1csc(-c2oc(CNCCc3ccccc3Cl)nc2-c2ccc(F)cc2)n1` [Example 1149] cannot be ordered by pIC50: < 6.00 for the first, < 6.00 for the second.

`CCN(CC)CCCC(C)NC(=O)c1csc(-c2sc(C)nc2-c2ccc(F)cc2)n1` (centres unmarked) [Example 1806] and `CCN(CC)C(=O)c1csc(-c2sc(C)nc2-c2ccc(F)cc2)n1` [Example 1837] cannot be ordered by pIC50: < 6.00 for the first, < 6.00 for the second.

`Cc1ccc(CNCc2onc(-c3ccc(F)cc3)c2-c2nc(C(=O)NC(C)C)cs2)cc1` [Example 1432] and `CC(C)NC(=O)c1csc(-c2c(-c3ccc(F)cc3)noc2CNCc2ccccc2)n1` [Example 1415] cannot be ordered by pIC50: < 6.00 for the first, < 6.00 for the second.

`CC(C)NC(=O)c1csc(-c2c(-c3ccc(F)cc3)n[nH]c2C2CCN(C(=O)c3ccc(C=O)cc3)CC2)n1` [Example 847] and `Cc1ccc(SCC(=O)N2CCC(c3[nH]nc(-c4ccc(F)cc4)c3-c3nc(C(=O)NC(C)C)cs3)CC2)cc1` [Example 943] cannot be ordered by pIC50: ≥ 6.00 for the first, < 6.00 for the second.

`CCOc1ccc(OCC)c(NCc2onc(-c3ccc(F)cc3)c2-c2nc(C(=O)NC(C)C)cs2)c1` [Example 1691] and `CC(C)NC(=O)c1csc(-c2c(-c3ccc(F)cc3)noc2CNc2ccccc2F)n1` [Example 1638] cannot be ordered by pIC50: < 6.00 for the first, < 6.00 for the second.

`CC(C)NC(=O)c1csc(-c2c(-c3ccc(F)cc3)n[nH]c2C2CCN(C(=O)c3cc([N+](=O)[O-])ccc3F)CC2)n1` [Example 949] and `CC(C)NC(=O)c1csc(-c2c(-c3ccc(F)cc3)n[nH]c2C2CCN(C(=O)c3cc(F)c(F)cc3Cl)CC2)n1` [Example 972] cannot be ordered by pIC50: < 6.00 for the first, < 6.00 for the second.

`CC(C)NC(=O)c1csc(-c2c(-c3ccc(F)cc3)noc2CNc2ccc(N(C)C)cc2)n1` [Example 1684] and `CC(C)CNCc1onc(-c2ccc(F)cc2)c1-c1nc(C(=O)NC(C)C)cs1` [Example 1394] cannot be ordered by pIC50: < 6.00 for the first, < 6.00 for the second.

`Cc1nc(-c2ccc(F)cc2)c(-c2nc(C(=O)NCC#N)cs2)s1` [Example 1708] and `Cc1nc(-c2ccc(F)cc2)c(-c2nc(C(=O)NC3CCCCC3C)cs2)s1` (centres unmarked) [Example 1747] cannot be ordered by pIC50: ≥ 6.00 for the first, ≥ 6.00 for the second.

`CCOC(=O)N1CCC(NC(=O)c2csc(-c3c(-c4ccc(F)cc4)n[nH]c3C3CCNCC3)n2)CC1` [Example 2141] and `O=C(NCCOc1ccccc1)c1csc(-c2c(-c3ccc(F)cc3)n[nH]c2C2CCNCC2)n1` [Example 2100] cannot be ordered by pIC50: < 6.00 for the first, < 6.00 for the second.

`O=C(NCc1ccc(F)cc1F)c1csc(-c2c(-c3ccc(F)cc3)n[nH]c2C2CCNCC2)n1` [Example 2111] and `CC(CNC(=O)c1csc(-c2c(-c3ccc(F)cc3)n[nH]c2C2CCNCC2)n1)c1ccccc1` (centres unmarked) [Example 2094] cannot be ordered by pIC50: < 6.00 for the first, < 6.00 for the second.

`CC(C)NC(=O)c1csc(-c2oc(CNc3cccc(C(F)(F)F)c3)nc2-c2ccc(F)cc2)n1` [Example 1356] and `CC(=O)c1cccc(NCc2nc(-c3ccc(F)cc3)c(-c3nc(C(=O)NC(C)C)cs3)o2)c1` [Example 1335] cannot be ordered by pIC50: < 6.00 for the first, < 6.00 for the second.

`C[C@H](NC(=O)c1csc(-c2c(-c3ccc(F)cc3)n[nH]c2C2CCNCC2)n1)c1ccccc1` [Example 2074] and `CC(C)NC(=O)c1csc(-c2c(-c3ccc(F)cc3)n[nH]c2C2CCN(C(=O)/C=C/c3ccccc3O)CC2)n1` [Example 880] cannot be ordered by pIC50: < 6.00 for the first, < 6.00 for the second.

`CCOC(=O)N1CCC(NCc2nc(-c3ccc(F)cc3)c(-c3nc(C(=O)NC(C)C)cs3)o2)CC1` [Example 1164] and `CC(C)NC(=O)c1csc(-c2oc(CN3CCC(N(C)C)C3)nc2-c2ccc(F)cc2)n1` (centres unmarked) [Example 1209] cannot be ordered by pIC50: < 6.00 for the first, < 6.00 for the second.

`CC(C)NC(=O)c1csc(-c2oc(CN3CCCC4CCCCC43)nc2-c2ccc(F)cc2)n1` (centres unmarked) [Example 1230] and `CC1CC(C)CN(Cc2nc(-c3ccc(F)cc3)c(-c3nc(C(=O)NC(C)C)cs3)o2)C1` (centres unmarked) [Example 1206] cannot be ordered by pIC50: < 6.00 for the first, < 6.00 for the second.

`CC(C)NC(=O)c1csc(-c2oc(CN(Cc3cccnc3)Cc3cccnc3)nc2-c2ccc(F)cc2)n1` [Example 1277] and `CC(C)NC(=O)c1csc(-c2oc(CNC3CCCc4ccccc43)nc2-c2ccc(F)cc2)n1` (centres unmarked) [Example 1304] cannot be ordered by pIC50: < 6.00 for the first, < 6.00 for the second.

`Cc1nc(-c2ccc(F)cc2)c(-c2nc(C(=O)N3CCN(C(=O)OC(C)(C)C)C[C@H]3CO)cs2)s1` [Example 1943] and `Cc1nc(-c2ccc(F)cc2)c(-c2nc(C(=O)N3CCN(c4ccc(F)cc4F)CC3)cs2)s1` [Example 1927] cannot be ordered by pIC50: < 6.00 for the first, < 6.00 for the second.

`Cc1nc(-c2ccc(F)cc2)c(-c2nc(C(=O)NCC(=O)c3ccccc3)cs2)s1` [Example 1815] and `Cc1nc(-c2ccc(F)cc2)c(-c2nc(C(=O)NCCc3ccc(F)cc3)cs2)s1` [Example 1782] cannot be ordered by pIC50: < 6.00 for the first, < 6.00 for the second.

`CC(C)NC(=O)c1csc(-c2c(-c3ccc(F)cc3)noc2CNN2CCN(C)CC2)n1` [Example 1425] and `Cc1nc(-c2ccc(F)cc2)c(-c2nc(C(=O)N3CCN(c4ccc(C#N)cn4)CC3)cs2)s1` [Example 1912] cannot be ordered by pIC50: < 6.00 for the first, < 6.00 for the second.

`Cc1nc(-c2ccc(F)cc2)c(-c2nc(C(=O)Nc3ccccc3COc3ccccc3)cs2)s1` [Example 2019] and `Cc1nc(-c2ccc(F)cc2)c(-c2nc(C(=O)N3CCN(c4ccc(C(F)(F)F)cn4)CC3)cs2)s1` [Example 1951] cannot be ordered by pIC50: < 6.00 for the first, < 6.00 for the second.
